This passage reports IC50 results from patent US11786534B2 (TAIHO PHARMACEUTICAL CO., LTD., priority 2019, dated 2023).

SMILES strings stand for the structures.

Common to all, as to assay type: biochemical
Test [1] addresses T1, human EGFR (d746-750/T790M/C797S) (Homo sapiens, UniProt P00533, C797S/DEL746-750/T790M).
T1 construct: made in house; host or cells: Sf9 insect cells, baculovirus
Description: Inhibitory activity against EGFR (d746-750/T790M/C797S) kinase. The method, then:
1) Measurement of inhibitory activity against EGFR (d746-750/T790M/C797S) kinase
The compounds of the above examples and comparative examples were measured for their inhibitory activity against EGFR (d746-750/T790M/C797S) kinase activity. Among the materials required for measurement of this inhibitory activity, the kinase protein (SEQ ID NO: 1) used was prepared as follows: the cytoplasmic domain of human EGFR (d746-750/T790M/C797S) fused at the ammo terminal end with a glutathione-S-transferase (GST) tag was expressed M insect cells (Sf9) by the baculovirus expression system and then purified an a glutathione sepharose column. For use as a substrate peptide, a peptide biotinylated at the N-terminal end (biotin -EEPLYWSFPAKKK) was synthesized by reference to Perkin Elmer LabChip® series reagent FL-Peptide 22.
Procedures for measurement of the inhibitory activity are as follows. First, the compounds of the present invention were each dissolved in dimethyl sulfoxide (DMSO), and their serial dilutions were then prepared with DMSO. Secondly, each compound serial dilution (final concentration of DMSO during kinase reaction: 2.5%) or DMSO (final concentration: 2.5%) was mixed with a solution containing the substrate peptide (final concentration: 250 nM), magnesium chloride (final concentration: 10 mM), manganese chloride (final concentration: 10 mM) and ATP (final concentration: 6 μM) in a kinase reaction buffer (Carna Biosciences Inc., Japan), and the EGFR (d746-750/T790M/C797S) protein was further added thereto, followed by incubation at 25° C. for 120 minutes to cause kinase reaction. To the reaction solution, EDTA was added to give a final concentration of 24 mM to thereby stop the reaction, followed by addition of a phospholylated tyrosine detection solution containing europium-labeled anti-phosphorylated tyrosine antibody PT66 (Perkin Elmer) and SureLight APC-SA (Perkin Elmer). The reaction solution was allowed to stand at room temperature for 2 hours or longer. As a background, DMSO was used instead of each compound solution in .DMSO, and EDIA was added prior to the addition of the EGFR EGFR (d746-750/T790M/C797S) protein, followed by incubation at 25° C. for 120 minutes. The same detection solution was also added to this reaction solution, which was then allowed to stand for 2 hours or longer. Finally, all the test samples were measured with a PHERAstar FS reader (BMG LABTECH) for their fluorescence intensity at two wavelengths of 620 nm and 665 nm upon irradiation with an excitation light of 337 nm wavelength, and the ratio of fluorescence intensities at these two wavelengths was obtained as data for each compound.
Moreover, as control compounds, the above Comparative Example A (Example 3 in WO2013/118817) and Comparative Example B (Example 35 in WO2013/118817) known to have EGFR inhibitory activity were used.
In accordance with the same procedures as shown in 1) in Test Example 1, the compounds of the above examples were measured for their inhibitory activity against EGFR (d746-750/T790M/C797S) kinase activity.

For test [2], the target named is T2, human EGFR (L858R/T790M/C797S) (Homo sapiens, UniProt P00533, C797S/L858R/T790M).
T2 construct: made in house; host or cells: Sf9 insect cells, baculovirus
T2 sequence (P00533 with tags, fused parts or gaps T790M/C797S/L858R): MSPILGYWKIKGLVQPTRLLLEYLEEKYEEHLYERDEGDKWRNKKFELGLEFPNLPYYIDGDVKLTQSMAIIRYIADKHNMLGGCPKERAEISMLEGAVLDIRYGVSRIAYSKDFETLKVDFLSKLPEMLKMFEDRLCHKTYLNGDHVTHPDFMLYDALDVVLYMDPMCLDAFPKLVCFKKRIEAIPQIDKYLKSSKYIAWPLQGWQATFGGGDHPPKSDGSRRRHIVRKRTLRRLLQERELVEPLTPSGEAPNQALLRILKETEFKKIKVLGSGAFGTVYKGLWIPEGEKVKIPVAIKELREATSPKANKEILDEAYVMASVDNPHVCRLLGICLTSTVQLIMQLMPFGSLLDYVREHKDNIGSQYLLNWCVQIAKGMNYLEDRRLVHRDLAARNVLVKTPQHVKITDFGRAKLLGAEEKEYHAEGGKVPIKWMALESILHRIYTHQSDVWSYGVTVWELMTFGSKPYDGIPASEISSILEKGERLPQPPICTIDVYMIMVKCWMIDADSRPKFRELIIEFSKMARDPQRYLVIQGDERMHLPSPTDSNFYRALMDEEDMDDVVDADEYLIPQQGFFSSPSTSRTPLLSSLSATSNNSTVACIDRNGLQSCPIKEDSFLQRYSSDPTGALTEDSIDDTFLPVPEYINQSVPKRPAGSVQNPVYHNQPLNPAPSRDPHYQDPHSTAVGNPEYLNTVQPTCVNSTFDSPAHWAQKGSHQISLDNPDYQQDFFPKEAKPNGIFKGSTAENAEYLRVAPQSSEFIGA
Description: Inhibitory activity against EGFR (L858R/T790M/C797S) kinase. On the procedure:
2) Measurement of inhibitory activity against EGFR (L858R/T790M/C797S) kinase
The compounds of the presein invention were measured for their inhibitory activity against EGFR (L858R/T790M/C797S) kinase activity.
The materials, measurement procedures and data analysis method used in this test are substantially the same as those shown in the section “Measurement of inhibitory activity against EGFR (d746-750/T790M/C797S) kinase.” However, among the materials, the kinase protein (SEQ ID NO: 2) used was prepared as follows: the cytoplasmic domain of human EGFR (L858R/T790M/C797S) fused at the amino terminal end with a GST tag was expressed in insect cells (Sf9) by the baculovirus expression system and then purified on a glutathione sepharose column. In the measurement procedures, the final concentration of ATP was set to 0.5 μM. Finally, data analysis was conducted to determine the IC50 value (nM) of each compound against EGFR (L858R/T790M/C797S).
In accordance with the same procedures as shown in 2) in Test Example 1, the compounds of the present invention were measured for their inhibitory activity against EGFR (L858R/T790M/C797S) kinase activity.

Test [3] addresses T3, human EGFR (d746-750/C797S) (Homo sapiens, UniProt P00533, C797S/DEL746-750).
T3 construct: purchased SignalChem
Description: Inhibitory activity against EGFR (d746-750/C797S) kinase. The method, then: 3) Measurement of inhibitory activity against EGFR (d746-750/C797S) kinase
The compounds of the present invention were measured for their inhibitory activity against EGFR (d746-750/C797S) kinase activity.
The materials, measurement procedures and data analysis method used in this test are substantially the same as those shown in the section “Measurement of inhibitory activity aiainst EGFR (d746-750/T790M/C797S) kinase.” However, among the materials, the kinase protein used was a purified recombinant human EGFR (d746-750/C797S) protein purchased from SignalChem, while the kinase reaction buffer used was 13.5 mM Tris (pH 7.5) containing 2 mM dithiothreitol and 0.009% Tween-20. In the measurement procedures, the final concentration of ATP was set to 14 μM, the final concentration of maganesium chloride was set to 20 mM, the final concentration of manganese chloride was set to 12.5 mM, the incubation time for kinase reaction was set to 60 minutes, and the final concentration of EDTA used to stop the kinase reaction was set to 40 mM. Finally, data analysis was conducted to determine to IC50 value (nM) of each compound against EGFR (d746-750/C797S).
In accordance with the same procedures as shown in 3) in Test Example 1, the compounds of the present invention were measured for their inhibitory activity against EGFR (d746-750/C797S) kinase activity.

The target in test [4] is T4, human EGFR (L858R/C797S) (Homo sapiens, UniProt P00533, C797S/L858R).
T4 construct: purchased SignalChem
T4 sequence (P00533 25-1210 C797S/L858R): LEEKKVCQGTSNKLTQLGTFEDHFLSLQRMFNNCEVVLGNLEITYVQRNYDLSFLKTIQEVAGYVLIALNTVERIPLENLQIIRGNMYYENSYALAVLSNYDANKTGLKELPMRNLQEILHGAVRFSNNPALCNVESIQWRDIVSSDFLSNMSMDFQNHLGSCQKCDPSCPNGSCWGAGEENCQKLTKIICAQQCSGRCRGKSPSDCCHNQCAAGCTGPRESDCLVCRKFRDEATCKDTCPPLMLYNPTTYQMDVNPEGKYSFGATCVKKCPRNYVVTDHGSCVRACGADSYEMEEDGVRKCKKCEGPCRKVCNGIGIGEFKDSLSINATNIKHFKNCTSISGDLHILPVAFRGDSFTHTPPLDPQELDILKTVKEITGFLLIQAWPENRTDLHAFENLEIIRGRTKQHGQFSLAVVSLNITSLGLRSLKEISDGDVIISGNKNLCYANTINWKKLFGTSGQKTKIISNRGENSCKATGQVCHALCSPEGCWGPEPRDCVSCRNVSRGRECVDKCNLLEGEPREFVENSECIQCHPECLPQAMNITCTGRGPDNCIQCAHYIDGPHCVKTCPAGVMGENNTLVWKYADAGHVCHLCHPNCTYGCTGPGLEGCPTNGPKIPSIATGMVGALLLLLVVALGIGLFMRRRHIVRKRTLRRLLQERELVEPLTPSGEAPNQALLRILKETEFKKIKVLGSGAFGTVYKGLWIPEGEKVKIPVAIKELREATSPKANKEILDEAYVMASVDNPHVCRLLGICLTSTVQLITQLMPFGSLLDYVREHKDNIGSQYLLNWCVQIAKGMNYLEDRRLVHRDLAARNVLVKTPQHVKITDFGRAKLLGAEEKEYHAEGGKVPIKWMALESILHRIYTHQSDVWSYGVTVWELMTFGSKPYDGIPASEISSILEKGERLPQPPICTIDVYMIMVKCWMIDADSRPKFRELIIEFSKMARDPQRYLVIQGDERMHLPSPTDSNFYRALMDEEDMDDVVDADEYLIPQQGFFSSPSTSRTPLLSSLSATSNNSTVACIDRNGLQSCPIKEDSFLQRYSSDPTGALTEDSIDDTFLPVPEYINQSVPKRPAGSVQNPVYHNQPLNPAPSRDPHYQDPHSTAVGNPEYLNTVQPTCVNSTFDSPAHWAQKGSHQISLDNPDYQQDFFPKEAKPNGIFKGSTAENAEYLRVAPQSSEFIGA
Description: Inhibitory activity against EGFR (L858R/C797S) kinase. The note with it: Test Example 1, Table 5; ATP 4 μM, 90 minutes. On the procedure:
4) Measurement of inhibitory activity against EGFR (L858R/C797S) kinase
The compounds of the present invention were measured for their inhibitory activity aeainst EGFR (L858R/C797S) kinase activity.
The materials, measurement procedures and data analysis method used in this test are stibstantially the same as those shown in the section “Measurement of inhibitory activity against EGFR (d746-750/C797S) kinase.” However, among the materials, the kinase protein used was a purified recombinant human EGFR (C797S/L858R) protein purchased from SignalChem. In the measurement procedures, the final concentration of ATP was set to 4 μM, and the incubation time for kinase reaction was set to 90 minutes. Finally, data analysis was conducted determine the IC50 value (nM) of each compound against EGFR (L858R/C797S).
In accordance with the same procedures as shown in 4) in Test Example 1, the compounds of the present invention were measured for their inhibitor activity against. EGFR (L858R/C797S) kinase activity.

Test [5] concerns the target T5, human EGFR (WT) (Homo sapiens, UniProt P00533).
T5 construct: purchased Carna Biosciences Inc., Japan
Nature of the test: Inhibitory activity against EGFR (WT) kinase. On the procedure: The compounds of the present invention were measured for their inhibitory activity nainst EGFR (WT) kinase activity.
The materials, measurement procedures and data analysis method used in this test. are substantially the same as those shown in the section “Measurement of inhibitory activity against EGFR (d746-750/T790M/C797S) kinase.” However, among the materials, the kinase protein used was a purified recombinant human EGFR (WT) purchased from Carna Biosciences Inc., Japan. In the measurement procedures, the final concentration of ATP was set to 1.5 μM. Finally, data analysis was conducted to determine the IC50 value (nM) of each compound against EGFR (WT).
In accordance with the same procedures as shown in 5) in Test Example 1, the compounds of the present invention were measured for their inhibitory activity against. EGFR (WT) kinase activity.

Setting [6] is: Test Example 1, Table 2, ATP 6 μM, 25° C., 120 minutes.
The mark [7] stands for this setting: Test Example 1, Table 3, ATP 0.5 μM.
Where [8] appears, read: Test Example 1, Table 4, ATP 14 μM, 60 minutes.
[9] abbreviates: Test Example 1, Table 6, ATP 1.5 μM.

T1 sequence (P00533 with tags, fused parts or gaps DEL746-750/T790M/C797S): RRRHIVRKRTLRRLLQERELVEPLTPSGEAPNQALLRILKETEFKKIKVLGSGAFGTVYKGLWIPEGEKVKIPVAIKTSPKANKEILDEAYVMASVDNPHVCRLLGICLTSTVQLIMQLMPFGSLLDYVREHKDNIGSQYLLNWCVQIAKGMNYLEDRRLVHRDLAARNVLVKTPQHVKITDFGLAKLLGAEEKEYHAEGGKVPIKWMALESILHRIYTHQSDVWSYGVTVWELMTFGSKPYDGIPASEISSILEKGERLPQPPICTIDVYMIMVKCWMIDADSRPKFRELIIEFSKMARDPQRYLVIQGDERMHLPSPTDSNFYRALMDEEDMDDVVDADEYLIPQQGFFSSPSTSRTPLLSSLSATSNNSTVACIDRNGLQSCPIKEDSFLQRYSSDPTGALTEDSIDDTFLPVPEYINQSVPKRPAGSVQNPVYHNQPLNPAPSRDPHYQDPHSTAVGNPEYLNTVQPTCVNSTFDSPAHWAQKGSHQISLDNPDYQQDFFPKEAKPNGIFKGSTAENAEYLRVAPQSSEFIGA
T5 sequence (P00533 25-1210): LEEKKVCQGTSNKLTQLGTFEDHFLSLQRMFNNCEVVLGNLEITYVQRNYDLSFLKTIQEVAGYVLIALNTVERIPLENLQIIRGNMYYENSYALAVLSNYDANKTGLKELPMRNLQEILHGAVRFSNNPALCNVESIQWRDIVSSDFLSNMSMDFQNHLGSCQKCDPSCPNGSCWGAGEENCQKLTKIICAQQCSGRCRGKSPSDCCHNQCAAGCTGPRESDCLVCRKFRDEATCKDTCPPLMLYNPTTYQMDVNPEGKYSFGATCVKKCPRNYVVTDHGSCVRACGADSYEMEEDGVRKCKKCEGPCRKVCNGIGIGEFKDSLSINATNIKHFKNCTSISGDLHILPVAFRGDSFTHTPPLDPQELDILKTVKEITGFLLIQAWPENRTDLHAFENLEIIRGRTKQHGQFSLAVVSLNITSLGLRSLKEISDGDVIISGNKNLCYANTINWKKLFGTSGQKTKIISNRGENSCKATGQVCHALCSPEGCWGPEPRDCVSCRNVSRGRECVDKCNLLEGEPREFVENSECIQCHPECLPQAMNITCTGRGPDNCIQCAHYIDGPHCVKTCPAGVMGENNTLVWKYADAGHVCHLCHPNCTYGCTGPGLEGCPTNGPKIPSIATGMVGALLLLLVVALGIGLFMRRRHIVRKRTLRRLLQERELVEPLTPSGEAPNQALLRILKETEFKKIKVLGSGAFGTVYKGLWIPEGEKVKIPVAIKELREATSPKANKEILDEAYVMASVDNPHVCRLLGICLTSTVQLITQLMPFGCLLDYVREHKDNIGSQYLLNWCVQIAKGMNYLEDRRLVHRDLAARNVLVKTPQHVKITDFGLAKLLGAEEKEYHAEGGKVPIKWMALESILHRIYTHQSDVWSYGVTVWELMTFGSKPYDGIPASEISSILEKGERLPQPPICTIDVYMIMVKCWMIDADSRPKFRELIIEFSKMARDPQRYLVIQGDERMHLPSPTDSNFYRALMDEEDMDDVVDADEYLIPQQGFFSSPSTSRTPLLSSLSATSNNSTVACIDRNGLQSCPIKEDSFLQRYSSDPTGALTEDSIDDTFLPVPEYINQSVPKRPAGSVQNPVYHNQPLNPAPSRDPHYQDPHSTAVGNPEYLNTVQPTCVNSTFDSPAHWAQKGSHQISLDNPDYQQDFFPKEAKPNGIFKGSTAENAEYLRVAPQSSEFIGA
T3 sequence (P00533 with tags, fused parts or gaps DEL746-750/C797S): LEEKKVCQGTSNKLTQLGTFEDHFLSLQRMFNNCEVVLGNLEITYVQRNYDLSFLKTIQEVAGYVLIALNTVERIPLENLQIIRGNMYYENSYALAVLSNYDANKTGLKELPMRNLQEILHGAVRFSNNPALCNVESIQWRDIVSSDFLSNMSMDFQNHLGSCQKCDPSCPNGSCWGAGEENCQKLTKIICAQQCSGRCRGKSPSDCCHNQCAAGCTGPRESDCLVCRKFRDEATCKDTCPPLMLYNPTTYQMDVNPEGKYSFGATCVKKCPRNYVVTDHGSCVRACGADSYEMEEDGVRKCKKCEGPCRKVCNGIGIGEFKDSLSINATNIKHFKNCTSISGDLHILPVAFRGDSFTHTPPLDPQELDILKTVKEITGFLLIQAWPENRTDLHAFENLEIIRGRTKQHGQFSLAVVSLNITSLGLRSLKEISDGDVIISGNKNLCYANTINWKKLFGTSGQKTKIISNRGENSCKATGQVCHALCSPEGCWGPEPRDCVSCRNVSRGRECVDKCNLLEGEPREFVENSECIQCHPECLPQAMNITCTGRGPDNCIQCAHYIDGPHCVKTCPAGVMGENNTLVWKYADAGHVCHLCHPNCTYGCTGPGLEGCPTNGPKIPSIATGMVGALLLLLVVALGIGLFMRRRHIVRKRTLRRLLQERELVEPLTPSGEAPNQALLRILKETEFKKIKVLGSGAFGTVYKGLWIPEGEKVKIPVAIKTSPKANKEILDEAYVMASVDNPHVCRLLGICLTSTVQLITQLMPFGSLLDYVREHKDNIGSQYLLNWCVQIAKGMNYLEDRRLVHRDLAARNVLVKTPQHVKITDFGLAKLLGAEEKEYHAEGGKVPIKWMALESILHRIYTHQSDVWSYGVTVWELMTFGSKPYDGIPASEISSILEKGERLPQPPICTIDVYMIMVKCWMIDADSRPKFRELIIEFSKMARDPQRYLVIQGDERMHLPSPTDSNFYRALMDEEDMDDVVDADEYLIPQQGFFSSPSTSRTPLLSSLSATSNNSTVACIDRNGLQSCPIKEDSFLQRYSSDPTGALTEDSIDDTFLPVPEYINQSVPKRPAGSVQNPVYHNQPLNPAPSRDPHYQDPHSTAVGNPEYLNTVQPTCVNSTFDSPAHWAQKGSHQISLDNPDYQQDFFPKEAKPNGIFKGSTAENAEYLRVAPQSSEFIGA

Regarding `C#Cc1c(-c2cnc3ccccc3c2)c2c(N)ncnc2n1C12CCC(NCC#N)(CC1)C2` [Example 4, 2-((4-(4-Amino-6-ethynyl-5-(quinolin-3-yl)-7H-pyrrolo[2,3-d]pyrimidin-7-yl)bicyclo-[2.2.1]heptan-1-yl)amino)acetonitrile], the IC50 (commonly the concentration that inhibits the measured activity by half) in test [1] (setting [6]) stood at 0.36 nM; in test [2] (setting [7]) it was 0.38 nM; in test [3] (setting [8]), 1 nM; in test [4], 1.5 nM; in test [5] (setting [9]) it was 2.9 nM.

In the case of `C#Cc1c(-c2cnc3ccccc3c2)c2c(N)ncnc2n1C12CCC(NC(=O)c3ccnn3C)(CC1)CC2` [Example 6, N-(4-(4-Amino-6-ethynyl-5-(quinoiln-3-yl)-7H-pyrrolo[2,3-d]pyrimidin-7-yl)bicyclo-[2.2.2]octan-1-yl)-1-methyl-1H-pyrazole-5-carboxamide], the IC50 in test [1] (setting [6]) was less than 0.3 nM; in test [2] (setting [7]) it was 0.7 nM; in test [3] (setting [8]), 2.1 nM; in test [4] it was 4.6 nM; in test [5] (setting [9]), 5.2 nM.

`C#Cc1c(-c2cnc3ccccc3c2)c2c(N)ncnc2n1C12CCC(CO)(CC1)C2` [Example 10]: the half-inhibitory concentration (IC50) in test [1] (setting [6]) is less than 0.3 nM; in test [2] (setting [7]) it was 0.56 nM; in test [3] (setting [8]), 0.62 nM; in test [4], 0.95 nM; in test [5] (setting [9]) it was 1.1 nM.

As for `C#Cc1c(-c2cnc3ccccc3c2)c2c(N)ncnc2n1C12CCC(N(C)C)(CC1)C2` [Example 11, 7-(4-(Dimethylamino)bicyclo[2.2.1]heptan-1-yl)-6-ethynyl-5-(quinolin-3-yl)-7H -pyrrolo[2,3-d]pyrimidine-4-amine], the IC50 was less than 0.3 nM in test [1] (setting [6]); 0.69 nM in test [2] (setting [7]); 1.6 nM in test [3] (setting [8]); 2.4 nM in test [4]; 11 nM in test [5] (setting [9]).

With `C#Cc1c(-c2cnc3ccccc3c2)c2c(N)ncnc2n1C12CCC(NC(=O)OCC)(CC1)C2` [Example 12, Ethyl (4-(4-amino-6-ethynyl-5-(quinolin-3-yl)-7H-pyrrolo[2,3-d]pyrimidin-7-yl) -bicyclo[2.2.1]heptan-1-yl)carbamate], the IC50 is less than 0.3 nM in test [1] (setting [6]); 0.39 nM in test [2] (setting [7]); 2.4 nM in test [3] (setting [8]); 3.8 nM in test [4]; 2.1 nM in test [5] (setting [9]).

Regarding `C#Cc1c(-c2cnc3ccccc3c2)c2c(N)ncnc2n1C12CCC(NC(=O)c3cnc(Cl)cn3)(CC1)C2` [Example 15], the IC50 in test [1] (setting [6]) was less than 0.3 nM; in test [2] (setting [7]), 0.52 nM; in test [3] (setting [8]), 0.79 nM; in test [4] it was 1 nM; in test [5] (setting [9]), 1.5 nM.

For the compound `C#Cc1c(-c2cnc3ccccc3c2)c2c(N)ncnc2n1C12CCC(NC(=O)c3ccnn3CCOC)(CC1)C2` [Example 17, N-(4-(4-Amino-6-ethynyl-5-(quinolin-3-yl)-7H-pyrrolo[2,3-d]pyrimidin-7-yl)bicyclo-[2.2.1]heptan-1-yl)-1-(2-methoxyethyl)-1H-pyrazole-5-carboxamide], the IC50 in test [1] (setting [6]) is less than 0.3 nM; in test [2] (setting [7]) it was 0.79 nM; in test [3] (setting [8]), 0.61 nM; in test [4] it was 0.66 nM; in test [5] (setting [9]), 2.6 nM.

As for `C#Cc1c(-c2cnc3ccccc3c2)c2c(N)ncnc2n1C12CCC(NC(=O)c3nccnn3)(CC1)C2` [Example 19, N-(4-(4-Amino-6-ethynyl-5-(quinolin-3-yl)-7H-pyrrolo[2,3-d]pyrimidin-7-yl)bicyclo-[2.2.1]heptan-1-yl)-1,2,4-triazine-3-carboxamide], the IC50 in test [1] (setting [6]) was less than 0.3 nM; in test [2] (setting [7]), less than 0.3 nM; in test [3] (setting [8]), less than 0.3 nM; in test [4] it was 0.3 nM; in test [5] (setting [9]) it was 0.39 nM.

Regarding `C#Cc1c(-c2cnc3ccccc3c2)c2c(N)ncnc2n1C12CCC(NC(=O)[C@@H]3CNCCO3)(CC1)C2` [Example 62, (S)-N-(4-(4-Amino-6-ethynyl-5-(quinolin-3-yl)-7H-pyrrolo[2,3-d]pyrimidin-7-yl) -bicyclo[2.2.1]heptan-1-yl)morpholine-2-carboxamide], the concentration for half-maximal inhibition (IC50) in test [1] (Test Example 3, Table 8; same procedures as 1) in Test Example 1) was less than 0.3 nM; in test [2] (Test Example 3, Table 9; same procedures as 2) in Test Example 1), less than 0.3 nM; in test [3] (Test Example 3, Table 10; same procedures as 3) in Test Example 1), 0.34 nM; in test [5] (Test Example 3, Table 12; same procedures as 5) in Test Example 1) it was 1.6 nM.
